Laboratory results reported in patent US8889876B2, “Histone deacetylase inhibitors and uses thereof” (Jiangsu Hengyi Pharmaceutical Co., Ltd., priority 2008, dated 2014).
Converted amounts (≈) assume the structure as drawn.

Tests used:
[1] = system: PANC-1 human pancreatic cancer cells; assay: CCK-8 proliferation inhibition, PANC-1; format: cell-based; details: for inhibition at 10 µM / inhibition at 100 µM: Homo sapiens; for inhibition at 10 µM: PANC-1, 10 μM; for inhibition at 100 µM: PANC-1, 100 μM
How it was run: (§1)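 Inhibition rates were obtained by CCK-8 assay after treating cells with each compound at 100 μM or 10 μM.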

[2] = system: MDA-MB-435s human breast cancer cells; assay: CCK-8 proliferation inhibition, MDA-MB-435s; format: cell-based; details: CCK-8 method; for inhibition at 10 µM / inhibition at 100 µM: Homo sapiens, MDA-MB-435S
How it was run: as §1

[3] = system: PC-3 human prostate cancer; assay: CCK-8 proliferation inhibition, PC-3; format: cell-based; details: CCK-8 method; for inhibition at 10 µM / inhibition at 100 µM: Homo sapiens
How it was run: as §1

[4] = system: K562: human chronic myeloid leukemia cell strain; assay: MTT cytotoxicity to tumor cell strains, K562; format: cell-based; details: for IC50: Homo sapiens, read-out: Cell activity (IC50, μg/ml) K562
Protocol: (§2) The cytotoxicity of samples to tumor cell strains is determined through MTT.

[5] = system: Hep3B2.1-7 human liver cancer cells; assay: CCK-8 proliferation inhibition, Hep3B2.1-7; format: cell-based; details: CCK-8 method; for inhibition at 10 µM / inhibition at 100 µM: Homo sapiens, Hep3B
How it was run: as §1

[6] = system: A549 (human lung adenocarcinoma cells); assay: MTT cytotoxicity to tumor cell strains, A549; format: cell-based; details: for IC50: Homo sapiens, read-out: Cell activity (IC50, μg/ml) A549
Protocol: as §2

[7] = system: Jurkat E6-1 human T-cell lymphoma; assay: CCK-8 proliferation inhibition, Jurkat E6-1; format: cell-based; details: for inhibition at 10 µM / inhibition at 100 µM: Homo sapiens; for inhibition at 10 µM: Jurkat E6.1, 10 μM; for inhibition at 100 µM: Jurkat E6.1, 100 μM
How it was run: as §1

[8] = system: A549 human lung cancer cells; assay: CCK-8 proliferation inhibition, A549; format: cell-based; details: CCK-8 method; for inhibition at 10 µM / inhibition at 100 µM: Homo sapiens, A549
How it was run: as §1

[9] = system: Colo320 human rectal cancer cells; assay: CCK-8 proliferation inhibition, Colo320; format: cell-based; details: CCK-8 method; for inhibition at 10 µM / inhibition at 100 µM: Homo sapiens, COLO 320
How it was run: as §1

[10] = system: K562 human chronic myeloid leukemia cells; assay: CCK-8 proliferation inhibition, K562; format: cell-based; details: for inhibition at 10 µM / inhibition at 100 µM: Homo sapiens; for inhibition at 10 µM: K562, 10 μM; for inhibition at 100 µM: K562, 100 μM
How it was run: as §1

[11] = system: Hut78 T-cell Leukemia cell; assay: CCK-8 proliferation inhibition, Hut78; format: cell-based; details: for inhibition at 10 µM / inhibition at 100 µM: Homo sapiens, read-out: Hut-78 (inhibition %); for inhibition at 10 µM: HuT78, 10 μM; for inhibition at 100 µM: HuT78, 100 μM
How it was run: as §1

[12] = system: Hut 78 (T-cell Leukemia cell); assay: MTT cytotoxicity to tumor cell strains, Hut 78; format: cell-based; details: Hut 78, MTT; for IC50: Homo sapiens, HuT78, read-out: Cell activity (IC50, μg/ml) Hut 78
Protocol: as §2

histone deacetylase [13] = assay: in vitro inhibition activity on histone deacetylase (rat liver homogenate, MAL fluorescent substrate); format: biochemical, rats; details: n = 4, 37° C., 16 hours
Protocol: A 96-well plate (black) for determining […] is made by Costar Company of U.S. The histone deacetylase is obtained by homogenization of liver of rats. The histone deacetylase reacts with small molecular fluorescent substrate MAL such that the substrate MAL is deacetylated to become ML.
The compound to be detected is dissolved with 200 μL of DMSO. The stock solution of the compound to be detected is diluted with PBS to a concentration of the working solution. The histone deacetylase, the MAL fluorescent substrate and the compound to be detected are mixed in a water bath at 37° C. and reacted 16 hours. The final concentration of the compound to be detected is: MS275 and its similar compound: 10, 100 μmol/.
The reaction solution is extracted with ethyl acetate. The extract is pumped in vacuum and thereto added 110 μL of methanol (40%). Taking 50 μL/well to a 96-well plate and making a fluorescent detection at 325/390 nm.
The negative control wherein histone deacetylase is not added to the reaction is 100% inhibition. The control that only contains histone deacetylase without any inhibitor is the background (0% inhibition). The inhibition rate of the sample to be detected=(the detected fluorescent value−the background)/(the fluorescent value of the negative control−background)×100%
The inhibition rate and the standard deviation in the results are the average inhibition percentage and the standard deviation of each parallel well in each dosage group.

histone deacetylase [14] = assay: in vitro inhibition of histone deacetylase by HDAC inhibitor screening kit (Biovision K340-100); format: biochemical
Protocol: An assay for determining the in vitro inhibition activity of the compound on histone deacetylase is conducted according to the specification of HDAC inhibitor screeing kid (Biovision Company/Catalog #K340-100). […]

`Nc1ncccc1NC(=O)c1ccc(CNC(=O)/C=C/c2ccc([N+](=O)[O-])cc2)cc1` [V-36, N-(2-amino-3-pyridyl)-4-[(4-nitrocinnamoyl)aminomethyl]benzamide] gave an inhibition at 10 µM [1] of 20.8%, an inhibition at 100 µM [1] of 39.5% and an inhibition at 10 µM ([2]; compound concentration 10 μM) of 30.8%. The inhibition at 100 µM ([2]; compound concentration 100 μM) was 61.2%, the inhibition at 10 µM ([3]; compound concentration 10 μM) was -9.4% and the inhibition at 100 µM ([3]; compound concentration 100 μM) was 22.1%. For the same molecule, the IC50 [4] was > 100 µg/mL, the inhibition at 10 µM ([5]; compound concentration 10 μM) was 11.3% and the inhibition at 100 µM ([5]; compound concentration 100 μM) was 40.6%. The IC50 [6] was > 100 µg/mL, the inhibition at 10 µM [7] was 12.5% and the inhibition at 100 µM [7] was 83.3%. The inhibition at 10 µM ([8]; compound concentration 10 μM) was 2.4%, the inhibition at 100 µM ([8]; compound concentration 100 μM) was 12% and the inhibition at 10 µM ([9]; compound concentration 10 μM) was 7.9%. The inhibition at 100 µM ([9]; compound concentration 100 μM) was 14.1%, the inhibition at 10 µM [10] was 34.1% and the inhibition at 100 µM [10] was 64.8%. For the same molecule, the inhibition at 10 µM [11] was 8.1%, the inhibition at 100 µM [11] was 60% and the IC50 [12] was 17.1 µg/mL (≈ 40.9 µM).
`O=C(NCc1ccc(C(=O)Nc2ccccn2)cc1)OCc1cccnc1` [V-2, N-(2-pyridyl)-4-[(3-pyridylmethoxyacyl)aminomethyl]benzamide] was tested, and the IC50 [4] was > 100 µg/mL, the IC50 [6] was > 100 µg/mL and the “inhibition rate % average number” value (histone deacetylase [13]; dosage 10 μmol/L) was −0.124%. The “inhibition rate % average number” value (histone deacetylase [13]; dosage 100 μmol/L) was 0.080% and the IC50 [12] was 76.2 µg/mL (≈ 210 µM).
In the case of `Nc1cnccc1NC(=O)c1ccc(CNC(=O)OCc2cccnc2)cc1` [V-5], the inhibition at 10 µM [1] is reported as 20.7%, the inhibition at 100 µM [1] is reported as 74.1% and the inhibition at 10 µM ([2]; compound concentration 10 μM) is reported as 35.8%. The inhibition at 100 µM ([2]; compound concentration 100 μM) was 86.9%, the inhibition at 10 µM ([3]; compound concentration 10 μM) was 90.3% and the inhibition at 100 µM ([3]; compound concentration 100 μM) was 92.4%. For the same molecule, the IC50 [4] was > 100 µg/mL, the inhibition at 10 µM ([5]; compound concentration 10 μM) was 31.2% and the inhibition at 100 µM ([5]; compound concentration 100 μM) was 53.6%. The IC50 [6] was > 100 µg/mL, the inhibition at 10 µM [7] was 58.5% and the inhibition at 100 µM [7] was 85.9%. The inhibition at 10 µM ([8]; compound concentration 10 μM) was 65.6%, the inhibition at 100 µM ([8]; compound concentration 100 μM) was 84.8% and the “inhibition rate % average number” value (histone deacetylase [13]; dosage 10 μmol/L) was 9.422%. The “inhibition rate % average number” value (histone deacetylase [13]; dosage 100 μmol/L) was 37.240%, the inhibition at 10 µM ([9]; compound concentration 10 μM) was 39.6% and the inhibition at 100 µM ([9]; compound concentration 100 μM) was 92.9%. For the same molecule, the inhibition at 10 µM [10] was 21%, the inhibition at 100 µM [10] was 64.4% and the “Inhibition rate(%)” value (histone deacetylase [14]; 3.91 μM) was 7.6%. The “Inhibition rate(%)” value (histone deacetylase [14]; 62.5 μM) was 28.0%, the “Inhibition rate(%)” value (histone deacetylase [14]; 2 mM) was 77.1% and the inhibition at 10 µM [11] was 43.4%. It also gave an inhibition at 100 µM [11] of 72.8% and an IC50 [12] of 0.4 µg/mL (≈ 1.06 µM).
`Nc1ncccc1NC(=O)c1ccc(CNC(=O)OCc2cccnc2)cc1` [V-4, N-(2-amino-3-pyridyl)-4-[(3-pyridylmethoxyacyl)aminomethyl]benzamide] showed an inhibition at 10 µM [1] of 40.2%, an inhibition at 100 µM [1] of 65.4% and an inhibition at 10 µM ([2]; compound concentration 10 μM) of 26.7%. For the same molecule, the inhibition at 100 µM ([2]; compound concentration 100 μM) was 87.5%, the inhibition at 10 µM ([3]; compound concentration 10 μM) was 79.5% and the inhibition at 100 µM ([3]; compound concentration 100 μM) was 91.5%. The IC50 [4] was > 100 µg/mL, the inhibition at 10 µM ([5]; compound concentration 10 μM) was 2.6% and the inhibition at 100 µM ([5]; compound concentration 100 μM) was 37.4%. For the same molecule, the IC50 [6] was > 100 µg/mL, the inhibition at 10 µM [7] was 48.5% and the inhibition at 100 µM [7] was 79.3%. The inhibition at 10 µM ([8]; compound concentration 10 μM) was 50.6%, the inhibition at 100 µM ([8]; compound concentration 100 μM) was 89.7% and the “inhibition rate % average number” value (histone deacetylase [13]; dosage 10 μmol/L) was 1.644%. The “inhibition rate % average number” value (histone deacetylase [13]; dosage 100 μmol/L) was 12.033%, the inhibition at 10 µM ([9]; compound concentration 10 μM) was 33.2% and the inhibition at 100 µM ([9]; compound concentration 100 μM) was 78.3%. For the same molecule, the inhibition at 10 µM [10] was 22.4%, the inhibition at 100 µM [10] was 30.8% and the “Inhibition rate(%)” value (histone deacetylase [14]; 3.91 μM) was 9.4%. The “Inhibition rate(%)” value (histone deacetylase [14]; 62.5 μM) was 19.8%, the “Inhibition rate(%)” value (histone deacetylase [14]; 2 mM) was 65.2% and the inhibition at 10 µM [11] was 36%. The inhibition at 100 µM [11] was 67.2% and the IC50 [12] was 4.21 µg/mL (≈ 11.2 µM).
For `Nc1ccccc1NC(=O)c1ccc(CNC(=O)OCc2cccnc2)cc1` [MS-275, reference compound], the “PANC-1 (inhibition %)” value ([1]; 10 μM) was 12.4%, the “PANC-1 (inhibition %)” value ([1]; 100 μM) was 31.6% and the “435s(inhibition %)” value ([2]; compound concentration 10 μM) was 2.7%. The “435s(inhibition %)” value ([2]; compound concentration 100 μM) was 59.3%, the “PC-3 (inhibition %)” value ([3]; compound concentration 10 μM) was 12.5% and the “PC-3 (inhibition %)” value ([3]; compound concentration 100 μM) was 71.5%. For the same molecule, the “Cell activity (IC50, μg/ml) K562” value [4] was 3.20 µg/mL, the “Hep3B (inhibition %)” value ([5]; compound concentration 10 μM) was 10.8% and the “Hep3B (inhibition %)” value ([5]; compound concentration 100 μM) was 52.1%. The “Cell activity (IC50, μg/ml) A549” value [6] was 24.42 µg/mL, the “Jurkat E6-1 (inhibition %)” value ([7]; 10 μM) was 89.5% and the “Jurkat E6-1 (inhibition %)” value ([7]; 100 μM) was 96.1%. For the same molecule, the “A549 (inhibition %)” value ([8]; compound concentration 10 μM) was 58.9%, the “A549 (inhibition %)” value ([8]; compound concentration 100 μM) was 92.3% and the “inhibition rate % average number” value (histone deacetylase [13]; dosage 10 μmol/L) was 45.588%. For the same molecule, the “inhibition rate % average number” value (histone deacetylase [13]; dosage 100 μmol/L) was 66.300%, the “Colo320 (inhibition %)” value ([9]; compound concentration 10 μM) was 18.0% and the “Colo320 (inhibition %)” value ([9]; compound concentration 100 μM) was 61.6%. The “K562 (inhibition %)” value ([10]; 10 μM) was 66.2%, the “K562 (inhibition %)” value ([10]; 100 μM) was 74.6% and the “Inhibition rate(%)” value (histone deacetylase [14]; 3.91 μM) was 32.5%. The “Inhibition rate(%)” value (histone deacetylase [14]; 62.5 μM) was 60.5%, the “Inhibition rate(%)” value (histone deacetylase [14]; 2 mM) was 82.2% and the “Hut-78 (inhibition %)” value ([11]; 10 μM) was 61.8%. For the same molecule, the “Hut-78 (inhibition %)” value ([11]; 100 μM) was 85.3% and the “Cell activity (IC50, μg/ml) Hut 78” value [12] was 0.15 µg/mL.
